Measurements from publication PMC10178204, “Peptaibol Analogs Show Potent Antibacterial Activity against Multidrug Resistant Opportunistic Pathogens” (International Journal of Molecular Sciences, 2023).
≈ marks a conversion by molar mass, not a printed value. Where “and” joins values, the source holds several entries; their conditions need not be identical. Equal values may be shown once. Non-standard residues stand in square brackets, D forms with d. Residues, ends and D or L forms follow the SMILES beside them. *: point of attachment. Leu(ol) = CC(C)C[C@H](N)CO; Octanoyl = CCCCCCCC(=O)*; Aib = CC(C)(N)C(=O)O

Assays:
[1] = tested on: blood agar plate (Columbia CNA Agar); assay: Hemolysis on blood agar plate; conditions: 35 ± 2 °C, 24 h; for Hemolysis (class): 50 μg peptide (2 μL of 25 mg/mL in DMSO) spotted on blood agar, visual, triplicate; for Hemolysis (d, diameter of hemolysis zone): 50 μg spotted on blood agar, average of triplicate
Description: Hemolysis zones were visually determined and measured. […] For two additional peptides (6 and 15), only a small hemolysis zone (diameter 4–5 mm) was visible, as compared to that of the positive control (Triton X-100, 13 mm).
Briefly, 2 μL of each peptide solution in DMSO (25 mg/mL), corresponding to 50 μg, was spotted on the surface of a blood agar plate (Columbia CNA Agar, Becton Dickinson Italia S.p.A., Florence, Italy). The plate was then incubated at 35 ± 2 °C for 24 h and visually inspected for the presence of hemolysis zones (see Figure S13, Supplementary Material). The experiment was performed in triplicate. Table 2 reports the average value of the diameter of hemolysis zones measured in each individual experiment. Triton X-100 was used as a positive control (diameter of the hemolysis zone: 13 mm), while DMSO was used as a negative control.
Figure S13. Implementation of the hemolysis test as described in Bechlars et al.. After spotting
2 µL (50 µg) of each compound at a random location on the blood agar plate and incubation at 35 ±
2 °C for 24 h, the plates were manually inspected for the presence of hemolysis zones. Triton X-100
and DMSO were used as the positive and negative controls, respectively. Results were interpreted
(1 picture or pasted object on this page, not shown here)

[2] = tested on: Acinetobacter baumannii ATCC 17978; conditions: for MBC Aba / MIC Aba: MHB, 5 × 10^5 CFU/mL, 18 h, 35 °C, triplicate
From the text: (§1) The antibacterial activity of the peptides was initially assessed on a panel of representative Gram-positive and Gram-negative organisms of high clinical relevance and commonly responsible for bacterial infections in both animals and humans. Bacillus subtilis ATCC 6633 (Bsu) was also included as a rod-shaped model Gram-positive organism. This first panel comprised: Enterococcus faecalis ATCC 29212 (Efa); Streptococcus pyogenes ATCC 12344 (Spy); and Staphylococcus aureus ATCC 25923 (Sau); Gram-negative: Escherichia coli CCUGT (Eco), Klebsiella pneumoniae ATCC 13833 (Kpn), Acinetobacter baumannii ATCC 17978 (Aba), and Pseudomonas aeruginosa ATCC 27853 (Pae) (Table 2). Both the minimum inhibitory concentration (MIC, Table 2) and the minimum bactericidal concentration (MBC, Table S1, Supporting Material) were determined.
(§2) The minimum inhibitory concentration (MIC) and the minimum bactericidal concentration (MBC) of the compounds were determined in triplicate using Mueller–Hinton broth (MHB). […] Therefore, we decided to dissolve all peptides in DMSO to a final concentration of 25 mg/mL, for consistency. The bacteria inoculum was 5 × 10^5 CFU/mL, as recommended by CLSI (Document M07-A10, 2015). […] Reference-type strains, including representatives of both Gram-positive bacteria (Bacillus subtilis ATCC 6633, Enterococcus faecalis ATCC 29212, Staphylococcus aureus ATCC 25923, the methicillin-resistant Staphylococcus aureus ATCC 43300 (MRSA), Streptococcus pyogenes ATCC 12344) and Gram-negative bacteria (Escherichia coli CCUGT, Klebsiella pneumoniae ATCC 13833, Pseudomonas aeruginosa ATCC 27853, and Acinetobacter baumannii ATCC 17978), were acquired from ATCC or CCUG culture collections. Other antibiotic-resistant clinical isolates were present in our collection at the University Teaching Hospital (Azienda Ospedaliero-Universitaria Senese ‘Santa Maria alle Scotte’) in Siena, Tuscany, Italy. Specifically, MDR carbapenem-hydrolyzing class D β-lactamase-producing Acinetobacter baumannii and metallo-β-lactamase-producing Pseudomonas aeruginosa were used in this study (Table 4).

[3] = tested on: Staphylococcus aureus ATCC 25923; conditions: MHB, 5 × 10^5 CFU/mL, 18 h, 35 °C, triplicate
From the text: as §1, §2

[4] = tested on: Enterococcus faecalis ATCC 29212; conditions: MHB, 5 × 10^5 CFU/mL, 18 h, 35 °C, triplicate
From the text: as §1, §2

[5] = tested on: Bacillus subtilis ATCC 6633; conditions: MHB, 5 × 10^5 CFU/mL, 18 h, 35 °C, triplicate
From the text: as §1, §2

[6] = tested on: Klebsiella pneumoniae ATCC 13833; conditions: MHB, 5 × 10^5 CFU/mL, 18 h, 35 °C, triplicate
From the text: as §1, §2

[7] = tested on: Streptococcus pyogenes ATCC 12344; conditions: MHB, 5 × 10^5 CFU/mL, 18 h, 35 °C, triplicate
From the text: as §1, §2

[8] = tested on: Pseudomonas aeruginosa ATCC 27853; conditions: MHB, 5 × 10^5 CFU/mL, 18 h, 35 °C, triplicate
From the text: as §1, §2

[9] = tested on: Escherichia coli CCUGT; conditions: MHB, 5 × 10^5 CFU/mL, 18 h, 35 °C, triplicate
From the text: as §1, §2

[10] = tested on: A. baumannii SI-648 (OXA-23, OXA-51-like); conditions: MHB, 5 × 10^5 CFU/mL, 18 h, 35 °C, triplicate
Description: as §2

[11] = tested on: S. aureus ATCC 43300 (MRSA); conditions: MHB, 5 × 10^5 CFU/mL, 18 h, 35 °C, triplicate
Description: as §2

[12] = tested on: P. aeruginosa 101/1477 (IMP-1); conditions: MHB, 5 × 10^5 CFU/mL, 18 h, 35 °C, triplicate
Description: as §2

[13] = tested on: A. baumannii SI-310 (OXA-24); conditions: colistin-resistant isolate; MHB, 5 × 10^5 CFU/mL, 18 h, 35 °C, triplicate
Description: as §2

[14] = tested on: P. aeruginosa VR-143/97 (VIM-1); conditions: MHB, 5 × 10^5 CFU/mL, 18 h, 35 °C, triplicate
Description: as §2

[15] = tested on: P. aeruginosa 506/99 (VIM-2); conditions: MHB, 5 × 10^5 CFU/mL, 18 h, 35 °C, triplicate
Description: as §2

[16] = tested on: P. aeruginosa VA-182/00 (VIM-2); conditions: MHB, 5 × 10^5 CFU/mL, 18 h, 35 °C, triplicate
Description: as §2

[17] = tested on: A. baumannii SI-12 (OXA-23); conditions: MHB, 5 × 10^5 CFU/mL, 18 h, 35 °C, triplicate
Description: as §2

SMILES | Hemolysis (class) [1] | Hemolysis (d, diameter of hemolysis zone) [1] [mm] | MBC Aba [2] [µg/mL] | MBC Sau [3] [µg/mL] | MIC Sau [3] [µg/mL] | MBC Efa [4] [µg/mL] | MIC Efa [4] [µg/mL] | MBC Bsu [5] [µg/mL] | MIC Bsu [5] [µg/mL] | MBC Kpn [6] [µg/mL] | MIC Kpn [6] [µg/mL] | MBC Spy [7] [µg/mL] | MIC Spy [7] [µg/mL] | MIC Eco [9] [µg/mL] | MBC A. baumannii SI-648 (OXA-23, OXA-51-like) [10] [µg/mL] | MIC A. baumannii SI-648 (OXA-23, OXA-51-like) [10] | MBC S. aureus ATCC 43300 (MRSA) [11] [µg/mL] | MIC S. aureus ATCC 43300 (MRSA) [11] [µg/mL] | MIC P. aeruginosa 101/1477 (IMP-1) [12] [µg/mL] | MBC A. baumannii SI-310 (OXA-24) [13] [µg/mL] | also measured
CCCCCCCC(=O)NC(C)(C)C(=O)NCC(=O)N[C@@H](CC(C)C)C(=O)NC(C)(C)C(=O)NCC(=O)N[C@@H](CCCCN)C(=O)N[C@@H](CC(C)C)C(=O)NC(C)(C)C(=O)NCC(=O)N[C@H](C(=O)N[C@H](CO)CC(C)C)[C@@H](C)CC [Peptide 10, 1-Oct-Aib-Gly-Leu-Aib-Gly-Lys-Leu-Aib-Gly-Ile-Lol] | + | 11 | > 128 | 16 (≈ 14.1 µM) | 8 (≈ 7.03 µM) | 16 (≈ 14.1 µM) | 4 (≈ 3.52 µM) | 16 (≈ 14.1 µM) | 4 (≈ 3.52 µM) | 64 (≈ 56.3 µM) | 16 (≈ 14.1 µM) | 16 (≈ 14.1 µM) | 4 (≈ 3.52 µM) | 64 (≈ 56.3 µM) | 16 (≈ 14.1 µM) | 16 μg/mL and 16/16 μg/mL | 8 (≈ 7.03 µM) | 4 (≈ 3.52 µM) | > 128 | 16 (≈ 14.1 µM) | MIC against A. baumannii, in molar units ([2]; corresponding to 2 and 8 μg/mL): 1.8 to 7.2 µM; MBC Pae [8]: 128 µg/mL (≈ 113 µM); MBC Eco [9]: 128 µg/mL (≈ 113 µM); MIC A. baumannii SI-310 (OXA-24) [13]: 16 μg/mL and 16/16 μg/mL; MIC P. aeruginosa VR-143/97 (VIM-1) [14]: > 128 µg/mL; MIC P. aeruginosa 506/99 (VIM-2) [15]: > 128 µg/mL; MIC P. aeruginosa VA-182/00 (VIM-2) [16]: > 128 µg/mL; MBC A. baumannii SI-12 (OXA-23) [17]: 32 µg/mL (≈ 28.1 µM); MIC A. baumannii SI-12 (OXA-23) [17]: 32 μg/mL and 32/32 μg/mL
CCCCCCCC(=O)NC(C)(C)C(=O)N[C@@H](CCCCN)C(=O)N[C@@H](CC(C)C)C(=O)NC(C)(C)C(=O)NCC(=O)NCC(=O)N[C@@H](CC(C)C)C(=O)NC(C)(C)C(=O)NCC(=O)N[C@H](C(=O)N[C@@H](CC(C)C)C(N)=O)[C@@H](C)CC [Peptide 2, 1-Oct-Aib-Lys-Leu-Aib-Gly-Gly-Leu-Aib-Gly-Ile-Leu-NH2] (Octanoyl-[Aib]KL[Aib]GGL[Aib]GIL-NH2) | + | 8 | 16 (≈ 13.9 µM) | 8 (≈ 6.95 µM) | 8 (≈ 6.95 µM) | 8 (≈ 6.95 µM) | 4 (≈ 3.48 µM) | 16 (≈ 13.9 µM) | 4 (≈ 3.48 µM) | > 128 | 64 (≈ 55.6 µM) | 4 (≈ 3.48 µM) | 4 (≈ 3.48 µM) | > 128 | 32 (≈ 27.8 µM) | 16 µg/mL (≈ 13.9 µM) | 4 (≈ 3.48 µM) | 2 (≈ 1.74 µM) | > 128 | 32 (≈ 27.8 µM) | MIC Aba [2]: 16 µg/mL (≈ 13.9 µM); MIC Pae [8]: > 128 µg/mL; MIC A. baumannii SI-310 (OXA-24) [13]: 32 μg/mL and 32/32 μg/mL; MIC P. aeruginosa VR-143/97 (VIM-1) [14]: > 128 µg/mL; MIC P. aeruginosa 506/99 (VIM-2) [15]: > 128 µg/mL; MIC P. aeruginosa VA-182/00 (VIM-2) [16]: > 128 µg/mL; MBC A. baumannii SI-12 (OXA-23) [17]: 32 µg/mL (≈ 27.8 µM); MIC A. baumannii SI-12 (OXA-23) [17]: 32 μg/mL and 32/32 μg/mL
CCCCCCCC(=O)NC(C)(C)C(=O)NCC(=O)N[C@@H](CC(C)C)C(=O)NC(C)(C)C(=O)NCC(=O)NCC(=O)N[C@@H](CC(C)C)C(=O)NC(C)(C)C(=O)NCC(=O)N[C@H](C(=O)N[C@H](CO)CC(C)C)[C@@H](C)CC [Peptide 0, Trichogin GA IV, reference compound] (Octanoyl-[Aib]GL[Aib]GGL[Aib]GI[Leu(ol)]) | - |  |  |  | > 128 | 32 (≈ 30 µM) | 16 (≈ 15 µM) | 32 (≈ 30 µM) | 16 (≈ 15 µM) |  | > 128 | 16 (≈ 15 µM) | 16 (≈ 15 µM) | > 128 |  |  |  |  |  |  | MIC Aba [2]: > 128 µg/mL; MIC Pae [8]: > 128 µg/mL
